This note sets out measurements from patent publication US20100093714A1, “AMIDES OF THIENO[2,3-d]PYRIMIDINE AND THEIR USE AS ADENOSINE A2a RECEPTOR ANTAGONISTS” (priority 2008, published 2010).

Test [1] addresses T1, human adenosine A1 receptor (Homo sapiens, UniProt P30542).
T1 construct: expressed in transfected cells; host or cells: CHO-K1
T1 sequence (P30542 1-326): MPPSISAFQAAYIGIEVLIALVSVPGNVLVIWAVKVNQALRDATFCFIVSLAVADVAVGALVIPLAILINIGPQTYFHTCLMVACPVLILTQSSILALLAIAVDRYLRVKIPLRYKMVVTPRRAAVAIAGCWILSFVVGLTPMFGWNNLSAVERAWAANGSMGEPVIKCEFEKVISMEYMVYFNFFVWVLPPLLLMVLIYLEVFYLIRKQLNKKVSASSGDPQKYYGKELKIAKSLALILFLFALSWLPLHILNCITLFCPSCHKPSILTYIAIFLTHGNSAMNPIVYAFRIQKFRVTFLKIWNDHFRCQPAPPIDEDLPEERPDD
Nature of the test: Adenosine A1 Receptor Functional Assay (A1GAL2). Conditions: CHO-K1 cells, cAMP inducible beta-galactosidase reporter, 4nM r-PIA/1 uM Forskolin agonist challenge. It counts as cell-based. Here is the method: (§1) To initiate the functional assay, cryopreserved CHO-K1 cells overexpressing the human adenosine A1 receptor and containing a cAMP inducible beta-galactosidase reporter gene were thawed, centrifuged, DMSO containing media removed, and then seeded with fresh culture media into clear 384-well tissue culture treated plates (BD #353961) at a concentration of 10K cells/well. Prior to assay, these plates were cultured for two days at 37° C., 5% CO2, 90% Rh. On the day of the functional assay, culture media was removed and replaced with 45 uL assay medium (Hams/F-12 Modified (Mediatech #10-080CV) supplemented w/0.1% BSA). Test compounds were diluted and 11 point curves created at a 1000× concentration in 100% DMSO. Immediately after addition of assay media to the cell plates, 50 nL of the appropriate test compound antagonist or agonist control curves were added to cell plates using a Cartesian Hummingbird. Compound curves were allowed to incubate at room temperature on cell plates for approximately 15 minutes before addition of a 4nM r-PIA (Sigma P4532)/1 uM Forskolin (Sigma F3917) agonist challenge (5 uL volume). A control curve of r-PIA in 1 uM Forskolin, a DMSO/Media control, and a single dose of Forskolin were also included on each plate. After additions, cell plates were allowed to incubate at 37° C., 5% CO2, 90% Rh for 5.5-6 hours. After incubation, media was removed, and cell plates were washed 1×50 uL with DPBS w/o Ca & Mg (Mediatech 21-031-CV). Into dry wells, 20 uL of 1× Reporter Lysis Buffer (Promega E3971 (diluted in dH2O from 5× stock)) was added to each well and plates frozen at −20° C. overnight. For β-galactosidase enzyme calorimetric assay, plates were thawed out at room temperature and 20 μL 2× assay buffer (Promega) was added to each well. Color was allowed to develop at 37° C., 5% CO2, 90% Rh for 1-1.5 h or until reasonable signal appeared. The calorimetric reaction was stopped with the addition of 60 μL/well 1M sodium carbonate. Plates were counted at 405 nm on a SpectraMax Microplate Reader (Molecular Devices). Data was analyzed in Microsoft Excel and IC/EC50 curves were fit using a standardized macro.

For test [2], the target named is T2, human adenosine A2a receptor (Homo sapiens, UniProt P29274).
T2 construct: expressed in transfected cells; host or cells: CHO-K1
T2 sequence (P29274 whole entry): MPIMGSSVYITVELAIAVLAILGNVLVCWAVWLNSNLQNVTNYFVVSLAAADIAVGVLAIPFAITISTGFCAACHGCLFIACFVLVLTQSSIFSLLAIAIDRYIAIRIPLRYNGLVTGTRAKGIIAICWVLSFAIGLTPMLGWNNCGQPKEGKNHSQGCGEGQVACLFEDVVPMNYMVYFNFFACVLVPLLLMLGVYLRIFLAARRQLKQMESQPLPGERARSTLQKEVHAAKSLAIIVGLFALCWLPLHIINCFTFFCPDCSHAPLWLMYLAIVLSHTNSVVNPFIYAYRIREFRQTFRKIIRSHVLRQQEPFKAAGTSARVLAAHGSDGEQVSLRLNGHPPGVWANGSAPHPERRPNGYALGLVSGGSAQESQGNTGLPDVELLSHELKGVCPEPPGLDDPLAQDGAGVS
Nature of the test: Adenosine A2a Receptor Functional Assay (A2AGAL2). It counts as cell-based. Conditions: CHO-K1 cells, cAMP inducible beta-galactosidase reporter, 15 nM NECA agonist challenge. As for the experimental part:
as §1, with “A2a” for “A1”, “15 nM NECA” for “4nM r-PIA”, “E2387)” for “P4532)/1 uM Forskolin (Sigma F3917)”, “NECA,” for “r-PIA in 1 uM Forskolin,”, “Forskolin (Sigma F3917)” for “Forskolin”

Test [3] has as its target T3, human A2a adenosine receptor (Homo sapiens, UniProt P29274).
T3 construct: purchased PerkinElmer RB-HA2a; host or cells: HEK293 plasma membrane
Nature of the test: Ligand Binding Assay for Adenosine A2a Receptor (A2A-B). Conditions: HEK293 cell plasma membrane, radioligand [3H]CGS21680. As for the experimental part:
Ligand binding assay of adenosine A2a receptor was performed using plasma membrane of HEK293 cells containing human A2a adenosine receptor (PerkinElmer, RB-HA2a) and radioligand [^3H]CGS21680 (PerkinElmer, NET1021). Assay was set up in 96-well polypropylene plate in total volume of 200 μL by sequentially adding 20 μL 1:20 diluted membrane, 130 μL assay buffer (50 mM Tris·HCl, pH7.4 10 mM MgCl2, 1 mM EDTA) containing [^3H] CGS21680, 50 μL diluted compound (4×) or vehicle control in assay buffer. Nonspecific binding was determined by […] NECA. Reaction was carried out at room temperature for 2 hours before filtering through 96-well GF/C filter plate pre-soaked in 50 mM Tris·HCl, pH7.4 containing 0.3% polyethylenimine. Plates were then washed 5 times with cold 50 mM Tris·HCl, pH7.4, dried and sealed at the bottom. Microscintillation fluid 30 μL was added to each well and the top sealed. Plates were counted on Packard Topcount for [^3H]. Data was analyzed in Microsoft Excel and GraphPad Prism programs. (Varani, K.; Gessi, S.; Dalpiaz, A.; Borea, P. A. British Journal of Pharmacology, 1996, 117, 1693)

Each structure is given as a SMILES string. Some results are limits rather than exact numbers.

T3 sequence (P29274 whole entry): as above

For orientation: Ki means the equilibrium dissociation constant of an inhibitor or competing ligand from its target. Higher therefore signals weaker binding. For `N#Cc1cccc(-c2nc(N)c3cc(C(=O)N4CCOCC4)sc3n2)c1` [Example 2, 3-[4-Amino-6-(morpholine-4-carbonyl)-thieno[2,3-d]pyrimidin-2-yl]-benzonitrile], the Ki was determined as 900 nM in test [1], 37.9 nM in test [2] and 22 nM in test [3].
As for `Cc1csc(-c2nc(N)c3cc(C(=O)N4CCOCC4)sc3n2)n1` [Example 3, [4-Amino-2-(4-methyl-thiazol-2-yl)-thieno[2,3-d]pyrimidin-6-yl]-morpholin-4-yl-methanone], the Ki in test [1] was determined as 851 nM; in test [2], 24.9 nM; in test [3], 45.5 nM.
Turning to `Cc1ccc(-c2nc(N)c3cc(C(=O)N4CCOCC4)sc3n2)o1` [Example 5, [4-Amino-2-(5-methyl-furan-2-yl)-thieno[2,3-d]pyrimidin-6-yl]-morpholin-4-yl-methanone], the Ki in test [1] came to 167 nM; in test [2] it was 11 nM; in test [3] it was 12 nM.
For `Nc1nc(-c2nc(C(F)(F)F)cs2)nc2sc(C(=O)N3CCOCC3)cc12` [Example 26, [4-Amino-2-(4-trifluoromethyl-thiazol-2-yl)-thieno[2,3-d]pyrimidin-6-yl]-morpholin-4-yl-methanone], the Ki was over 1310 nM in test [1] and 92.9 nM in test [2].
With `Cc1csc(-c2nc(N)c3cc(C(=O)NCc4cccnc4)sc3n2)n1` [Example 27, 4-Amino-2-(4-methyl-thiazol-2-yl)-thieno[2,3-d]pyrimidine-6-carboxylic acid(pyridin-3-ylmethyl)-amide], the Ki was 245 nM in test [1] and 40.3 nM in test [2].
The like results for `Cc1csc(-c2nc(N)c3cc(C(=O)N4CCN(Cc5ccccn5)CC4)sc3n2)n1` [Example 28, [4-Amino-2-(4-methyl-thiazol-2-yl)-thieno[2,3-d]pyrimidin-6-yl]-(4-pyridin-2-ylmethyl-piperazin-1-yl)-methanone] were, in that order, over 1040 nM and 160 nM.
`Nc1nc(-c2ccc(C3CC3)o2)nc2sc(C(=O)N3CCOCC3)cc12` [Example 29, [4-Amino-2-(5-cyclopropyl-furan-2-yl)-thieno[2,3-d]pyrimidin-6-yl]-morpholin-4-yl-methanone]: the Ki in test [1] was over 1070 nM; in test [2], 236 nM.
In the case of `CC(C)c1ccc(-c2nc(N)c3cc(C(=O)N4CCOCC4)sc3n2)o1` [Example 30, [4-Amino-2-(5-isopropyl-furan-2-yl)-thieno[2,3-d]pyrimidin-6-yl]-morpholin-4-yl-methanone], the Ki came out at 522 nM in test [1] and 236 nM in test [2].
In the case of `CC(C)(C)N1CCN(C(=O)c2cc3c(N)nc(-c4ccc(C5CC5)o4)nc3s2)CC1` [Example 32, [4-Amino-2-(5-cyclopropyl-furan-2-yl)-thieno[2,3-d]pyrimidin-6-yl]-(4-tert-butyl-piperazin-1-yl)-methanone], the Ki is over 1040 nM in test [1] and 1240 nM in test [2].
The like results for `Cc1csc(-c2nc(N)c3cc(C(=O)N4CCN(c5nccs5)CC4)sc3n2)n1` [Example 33, [4-Amino-2-(4-methyl-thiazol-2-yl)-thieno[2,3-d]pyrimidin-6-yl]-(4-thiazol-2-yl-piperazin-1-yl)-methanone] were, in that order, 978 nM and 81.9 nM.
